Results taken from PubChem BioAssay AID2060498 (Molecular Pharmacology Branch, DTP, NCI, 2025).

Tested on: 171881-019-R-J1-PDC tumor spheroids, viability
Assay: Anticancer human tumor 171881-019-R-J1-PDC patient-derived invasive breast carcinoma cell line growth inhibition [GQUAD]
Details: spheroids with HUVEC and MSC; for IC50: curve of first compound; for viability, T/C: stronger effect = lower value
In short: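 Viability of tumor cells grown as complex spheroids with endothelial and stromal cells, exposed to drug combinations. Top concentration at or near clinical Cmax (else 10 microM), diluted in half-log increments.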

[1] = second compound 0.0316 µM, first compound 0.0316 µM
[2] = second compound 0.0316 µM, first compound 0.1 µM
[3] = second compound 0.0316 µM, first compound 0.316 µM
[4] = second compound 0.0316 µM, first compound 1 µM
[5] = second compound 0.0316 µM, first compound 3.16 µM
[6] = second compound 0.0316 µM, first compound 10 µM
[7] = second compound 0.1 µM, first compound 0.0316 µM
[8] = second compound 0.1 µM, first compound 0.1 µM
[9] = second compound 0.1 µM, first compound 0.316 µM
[10] = second compound 0.1 µM, first compound 1 µM
[11] = second compound 0.1 µM, first compound 3.16 µM
[12] = second compound 0.1 µM, first compound 10 µM
[13] = second compound 0.316 µM, first compound 0.0316 µM
[14] = second compound 0.316 µM, first compound 0.1 µM
[15] = second compound 0.316 µM, first compound 0.316 µM
[16] = second compound 0.316 µM, first compound 1 µM
[17] = second compound 0.316 µM, first compound 3.16 µM
[18] = second compound 0.316 µM, first compound 10 µM
[19] = second compound 1 µM, first compound 0.0316 µM
[20] = second compound 1 µM, first compound 0.1 µM
[21] = second compound 1 µM, first compound 0.316 µM
[22] = second compound 1 µM, first compound 1 µM
[23] = second compound 1 µM, first compound 3.16 µM
[24] = second compound 1 µM, first compound 10 µM
[25] = second compound 3.16 µM, first compound 0.0316 µM
[26] = second compound 3.16 µM, first compound 0.1 µM
[27] = second compound 3.16 µM, first compound 0.316 µM
[28] = second compound 3.16 µM, first compound 1 µM
[29] = second compound 3.16 µM, first compound 3.16 µM
[30] = second compound 3.16 µM, first compound 10 µM
[31] = second compound 10 µM, first compound 0.0316 µM
[32] = second compound 10 µM, first compound 0.1 µM
[33] = second compound 10 µM, first compound 0.316 µM
[34] = second compound 10 µM, first compound 1 µM
[35] = second compound 10 µM, first compound 3.16 µM
[36] = second compound 10 µM, first compound 10 µM
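Wherever viability, T/C is given: 100% = DMSO vehicle control viability.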

## CC1COCCN1c1cc(-c2ccnn2C)c2ccnc(-c3ccn[nH]3)c2n1 (stereo unspecified) + Cc1cnc(CNC(=O)c2c(=O)c3ccc(N4CCCN(C)CC4)nc3n3c2sc2ccccc23)cn1
Second compound 0.0316 µM
  IC50: < 31.6 nM
Second compound 0.1 µM
  IC50: < 31.6 nM
Second compound 0.316 µM
  IC50: < 31.6 nM
Second compound 1 µM
  IC50: < 31.6 nM
Second compound 3.16 µM
  IC50: 36.8 nM
Second compound 10 µM
  IC50: < 31.6 nM
[1]
  viability, T/C: 41.9%
[2]
  viability, T/C: 22.4%
[3]
  viability, T/C: 13.9%
[4]
  viability, T/C: 8.64%
[5]
  viability, T/C: 5.53%
[6]
  viability, T/C: 5.12%
[7]
  viability, T/C: 42.5%
[8]
  viability, T/C: 24.9%
[9]
  viability, T/C: 14.8%
[10]
  viability, T/C: 8.31%
[11]
  viability, T/C: 5.49%
[12]
  viability, T/C: 5.8%
[13]
  viability, T/C: 41.5%
[14]
  viability, T/C: 27.8%
[15]
  viability, T/C: 17.2%
[16]
  viability, T/C: 9.26%
[17]
  viability, T/C: 5.7%
[18]
  viability, T/C: 5.04%
[19]
  viability, T/C: 46.4%
[20]
  viability, T/C: 33%
[21]
  viability, T/C: 21.6%
[22]
  viability, T/C: 11.2%
[23]
  viability, T/C: 6.82%
[24]
  viability, T/C: 4.69%
[25]
  viability, T/C: 52.4%
[26]
  viability, T/C: 35.1%
[27]
  viability, T/C: 25.4%
[28]
  viability, T/C: 13.4%
[29]
  viability, T/C: 6.44%
[30]
  viability, T/C: 4.66%
[31]
  viability, T/C: 48.2%
[32]
  viability, T/C: 38.8%
[33]
  viability, T/C: 24.1%
[34]
  viability, T/C: 13.9%
[35]
  viability, T/C: 7.41%
[36]
  viability, T/C: 4.56%

## Nc1ccn(C2OC(CO)C(O)C2(F)F)c(=O)n1 (stereo unspecified) + Cc1[nH]c2ccc(F)cc2c1-c1nc2c3cccnc3c3ncccc3c2[nH]1
Second compound 0.0316 µM
  IC50: < 31.6 nM
Second compound 0.1 µM
  IC50: < 31.6 nM
Second compound 0.316 µM
  IC50: < 31.6 nM
Second compound 1 µM
  IC50: < 31.6 nM
Second compound 3.16 µM
  IC50: < 31.6 nM
Second compound 10 µM
  IC50: < 31.6 nM
[1]
  viability, T/C: 25.9%
[2]
  viability, T/C: 28.6%
[3]
  viability, T/C: 39.9%
[4]
  viability, T/C: 38.6%
[5]
  viability, T/C: 36.5%
[6]
  viability, T/C: 31.6%
[7]
  viability, T/C: 25.8%
[8]
  viability, T/C: 30.9%
[9]
  viability, T/C: 38.6%
[10]
  viability, T/C: 41.2%
[11]
  viability, T/C: 35.9%
[12]
  viability, T/C: 31.3%
[13]
  viability, T/C: 26.7%
[14]
  viability, T/C: 29.6%
[15]
  viability, T/C: 35.7%
[16]
  viability, T/C: 35.2%
[17]
  viability, T/C: 38.6%
[18]
  viability, T/C: 31.7%
[19]
  viability, T/C: 26.7%
[20]
  viability, T/C: 28.6%
[21]
  viability, T/C: 38%
[22]
  viability, T/C: 35.8%
[23]
  viability, T/C: 39.1%
[24]
  viability, T/C: 31.1%
[25]
  viability, T/C: 18.5%
[26]
  viability, T/C: 14%
[27]
  viability, T/C: 19.1%
[28]
  viability, T/C: 16.8%
[29]
  viability, T/C: 19.9%
[30]
  viability, T/C: 16.2%
[31]
  viability, T/C: 20.3%
[32]
  viability, T/C: 23.7%
[33]
  viability, T/C: 27.2%
[34]
  viability, T/C: 28.6%
[35]
  viability, T/C: 26.6%
[36]
  viability, T/C: 26.1%

## C#Cc1c(F)ccc2cc(O)cc(-c3ncc4c(N5CC6CCC(C5)N6)nc(OCC56CCCN5CC(F)C6)nc4c3F)c12 (stereo unspecified) + Cc1cnc(CNC(=O)c2c(=O)c3ccc(N4CCCN(C)CC4)nc3n3c2sc2ccccc23)cn1
Second compound 0.0316 µM
  IC50: 425 nM
Second compound 0.1 µM
  IC50: 403 nM
Second compound 0.316 µM
  IC50: 405 nM
Second compound 1 µM
  IC50: 482 nM
Second compound 3.16 µM
  IC50: 286 nM
Second compound 10 µM
  IC50: 148 nM
[1]
  viability, T/C: 96.7%
[2]
  viability, T/C: 71.8%
[3]
  viability, T/C: 52.7%
[4]
  viability, T/C: 42.3%
[5]
  viability, T/C: 29.4%
[6]
  viability, T/C: 26%
[7]
  viability, T/C: 75.7%
[8]
  viability, T/C: 66%
[9]
  viability, T/C: 52%
[10]
  viability, T/C: 41.3%
[11]
  viability, T/C: 30.1%
[12]
  viability, T/C: 27.4%
[13]
  viability, T/C: 68%
[14]
  viability, T/C: 62.3%
[15]
  viability, T/C: 51.7%
[16]
  viability, T/C: 42%
[17]
  viability, T/C: 37.1%
[18]
  viability, T/C: 32.3%
[19]
  viability, T/C: 64.6%
[20]
  viability, T/C: 56.9%
[21]
  viability, T/C: 55.6%
[22]
  viability, T/C: 44.2%
[23]
  viability, T/C: 41%
[24]
  viability, T/C: 40.9%
[25]
  viability, T/C: 60.3%
[26]
  viability, T/C: 52.5%
[27]
  viability, T/C: 52.9%
[28]
  viability, T/C: 44.3%
[29]
  viability, T/C: 41.5%
[30]
  viability, T/C: 41.5%
[31]
  viability, T/C: 52.1%
[32]
  viability, T/C: 54.5%
[33]
  viability, T/C: 49.4%
[34]
  viability, T/C: 41.2%
[35]
  viability, T/C: 44.8%
[36]
  viability, T/C: 43.5%
